Measurements reported in PMC8453114 (Journal of molecular biology, 2021).

Target: T1, HTLV-1 myr(−)MA (Human T-cell leukemia virus type I, UniProt Q9QR99)
Experiment: 1H-15N HSQC NMR titration
Type: binding

| SMILES | Kd [µM] |
| --- | --- |
| O=P(O)(O)O[C@@H]1[C@H](O)[C@H](O)[C@@H](OP(=O)(O)O)[C@H](OP(=O)(O)O)[C@H]1O [IP3, inositol 1,4,5-trisphosphate] | 338 ± 42 |
| O=P(O)(O)O[C@H]1[C@H](OP(=O)(O)O)[C@@H](OP(=O)(O)O)[C@H](OP(=O)(O)O)[C@@H](OP(=O)(O)O)[C@H]1OP(=O)(O)O [IP6, inositol hexakisphosphate] | 23 ± 11 |
| CCCC(=O)OC[C@H](COP(=O)(O)O[C@@H]1[C@H](O)[C@H](O)[C@@H](OP(=O)(O)O)[C@H](OP(=O)(O)O)[C@H]1O)OC(=O)CCC [diC4-PI(4,5)P2] | 306 ± 30 |
| CCCCCC(=O)OC[C@H](COP(=O)(O)O[C@@H]1[C@H](O)[C@H](O)[C@@H](OP(=O)(O)O)[C@H](OP(=O)(O)O)[C@H]1O)OC(=O)CCCCC [diC6-PI(4,5)P2] | 195 ± 19 |

Target: T1, HTLV-1 myr(−)MA
Experiment: 1H NMR liposome
Type: binding

| SMILES | Kd [µM] |
| --- | --- |
| CCCCCCCC/C=C\CCCCCCCC(=O)O[C@H](COC(=O)CCCCCCCCCCCCCCC)COP(=O)(O)OC[C@H](N)C(=O)O [POPS, 1-palmitoyl-2-oleoyl-sn-glycero-3-phospho-L-serine] | 118 ± 16 |
| CCCCCCCCCCCCCCCC(=O)OC[C@H](COP(=O)(O)O[C@@H]1[C@H](O)[C@H](OP(=O)(O)O)[C@@H](O)[C@H](OP(=O)(O)O)[C@H]1O)OC(=O)CCCCCCCCCCCCCCC [diC16-PI(3,5)P2, dipalmitoyl-phosphatidylinositol 3,5-bisphosphate] | 32 ± 2 |
